Data taken from ChEMBL document CHEMBL4020706, “Design, synthesis and biological evaluation of novel hydroxamates and 2-aminobenzamides as potent histone deacetylase inhibitors and antitumor agents” (Eur J Med Chem, 2017).

Assays:
[1] = test system: A549; assay: Antiproliferative activity against human A549 cells after 72 hrs by CCK-8 reagent based assay; type: functional, cell-based; conditions: A549, 72 h
[2] = test system: HepG2; assay: Antiproliferative activity against human HepG2 cells after 72 hrs by CCK-8 reagent based assay; type: functional, cell-based; conditions: HepG2, 72 h
[3] = test system: MGC-803; assay: Antiproliferative activity against human MGC803 cells after 72 hrs by CCK-8 reagent based assay; type: functional, cell-based; conditions: MGC-803, 72 h
[4] = test system: HCT-116; assay: Antiproliferative activity against human HCT116 cells after 72 hrs by CCK-8 reagent based assay; type: functional, cell-based; conditions: HCT-116, 72 h
[5] = test system: A549; assay: Inhibition of colony formation in human A549 cells after 7 days by crystal violet staining based assay; type: functional, cell-based
[6] = test system: A549; assay: Induction of apoptosis in human A549 cells assessed as necrotic cells at 8 umol/L after 48 hrs by Alexa Fluor 488 Annexin/propidium iodide staining-based flow cytometry (reference value: 0.87%); type: functional
[7] = test system: A549; assay: Induction of apoptosis in human A549 cells assessed as viable cells at 8 umol/L after 48 hrs by Alexa Fluor 488 Annexin/propidium iodide staining-based flow cytometry (reference value: 92.79%); type: functional; conditions: A549, 48 h, read-out: Activity
[8] = test system: A549; assay: Cell cycle arrest in human A549 cells assessed as accumulation at S phase at 2 umol/L after 48 hrs by propidium iodide staining-based flow cytometry (reference value: 15.13%); type: functional
[9] = test system: A549; assay: Induction of apoptosis in human A549 cells assessed as necrotic cells at 4 umol/L after 48 hrs by Alexa Fluor 488 Annexin/propidium iodide staining-based flow cytometry (reference value: 0.87%); type: functional
[10] = test system: A549; assay: Induction of apoptosis in human A549 cells assessed as late apoptotic cells at 8 umol/L after 48 hrs by Alexa Fluor 488 Annexin/propidium iodide staining-based flow cytometry (reference value: 2.93%); type: functional
[11] = test system: A549; assay: Cell cycle arrest in human A549 cells assessed as accumulation at G2/M phase at 2 umol/L after 48 hrs by propidium iodide staining-based flow cytometry (reference value: 9.1%); type: functional; conditions: at 2 µM
[12] = test system: A549; assay: Induction of apoptosis in human A549 cells assessed as early apoptotic cells at 4 umol/L after 48 hrs by Alexa Fluor 488 Annexin/propidium iodide staining-based flow cytometry (reference value: 3.41%); type: functional
[13] = test system: A549; assay: Cell cycle arrest in human A549 cells assessed as accumulation at G0/G1 phase at 2 umol/L after 48 hrs by propidium iodide staining-based flow cytometry (reference value: 75.77%); type: functional
[14] = test system: A549; assay: Cell cycle arrest in human A549 cells assessed as accumulation at G0/G1 phase at 16 umol/L after 48 hrs by propidium iodide staining-based flow cytometry (reference value: 75.77%); type: functional
[15] = test system: A549; assay: Induction of apoptosis in human A549 cells assessed as early apoptotic cells at 8 umol/L after 48 hrs by Alexa Fluor 488 Annexin/propidium iodide staining-based flow cytometry (reference value: 3.41%); type: functional
[16] = test system: A549; assay: Cell cycle arrest in human A549 cells assessed as accumulation at G2/M phase at 16 umol/L after 48 hrs by propidium iodide staining-based flow cytometry (reference value: 9.1%); type: functional; conditions: at 16 µM
[17] = test system: A549; assay: Induction of apoptosis in human A549 cells assessed as late apoptotic cells at 4 umol/L after 48 hrs by Alexa Fluor 488 Annexin/propidium iodide staining-based flow cytometry (reference value: 2.93%); type: functional
[18] = test system: A549; assay: Induction of apoptosis in human A549 cells assessed as viable cells at 4 umol/L after 48 hrs by Alexa Fluor 488 Annexin/propidium iodide staining-based flow cytometry (reference value: 92.79%); type: functional; conditions: A549, 48 h, read-out: Activity
[19] = test system: A549; assay: Cell cycle arrest in human A549 cells assessed as accumulation at S phase at 16 umol/L after 48 hrs by propidium iodide staining-based flow cytometry (reference value: 15.13%); type: functional
[20] = test system: A549; assay: Induction of apoptosis in human A549 cells after 48 hrs by Alexa Fluor 488 Annexin/propidium iodide staining-based flow cytometry; type: functional, cell-based
[21] = target: Histone deacetylase 1 (Homo sapiens, UniProt Q13547); assay: Inhibition of human recombinant HDAC1 using Fluor de Lys as substrate by fluorometric assay
[22] = target: Histone deacetylase 2 (Homo sapiens, UniProt Q92769); assay: Inhibition of human recombinant HDAC2 using Fluor de Lys green as substrate by fluorometric assay
[23] = target: T1, Protein deacetylase HDAC6 (Homo sapiens, UniProt Q9UBN7); assay: Inhibition of human recombinant HDAC6 using Fluor de Lys as substrate after 60 mins by fluorometric assay
T1 sequence (Q9UBN7 whole entry): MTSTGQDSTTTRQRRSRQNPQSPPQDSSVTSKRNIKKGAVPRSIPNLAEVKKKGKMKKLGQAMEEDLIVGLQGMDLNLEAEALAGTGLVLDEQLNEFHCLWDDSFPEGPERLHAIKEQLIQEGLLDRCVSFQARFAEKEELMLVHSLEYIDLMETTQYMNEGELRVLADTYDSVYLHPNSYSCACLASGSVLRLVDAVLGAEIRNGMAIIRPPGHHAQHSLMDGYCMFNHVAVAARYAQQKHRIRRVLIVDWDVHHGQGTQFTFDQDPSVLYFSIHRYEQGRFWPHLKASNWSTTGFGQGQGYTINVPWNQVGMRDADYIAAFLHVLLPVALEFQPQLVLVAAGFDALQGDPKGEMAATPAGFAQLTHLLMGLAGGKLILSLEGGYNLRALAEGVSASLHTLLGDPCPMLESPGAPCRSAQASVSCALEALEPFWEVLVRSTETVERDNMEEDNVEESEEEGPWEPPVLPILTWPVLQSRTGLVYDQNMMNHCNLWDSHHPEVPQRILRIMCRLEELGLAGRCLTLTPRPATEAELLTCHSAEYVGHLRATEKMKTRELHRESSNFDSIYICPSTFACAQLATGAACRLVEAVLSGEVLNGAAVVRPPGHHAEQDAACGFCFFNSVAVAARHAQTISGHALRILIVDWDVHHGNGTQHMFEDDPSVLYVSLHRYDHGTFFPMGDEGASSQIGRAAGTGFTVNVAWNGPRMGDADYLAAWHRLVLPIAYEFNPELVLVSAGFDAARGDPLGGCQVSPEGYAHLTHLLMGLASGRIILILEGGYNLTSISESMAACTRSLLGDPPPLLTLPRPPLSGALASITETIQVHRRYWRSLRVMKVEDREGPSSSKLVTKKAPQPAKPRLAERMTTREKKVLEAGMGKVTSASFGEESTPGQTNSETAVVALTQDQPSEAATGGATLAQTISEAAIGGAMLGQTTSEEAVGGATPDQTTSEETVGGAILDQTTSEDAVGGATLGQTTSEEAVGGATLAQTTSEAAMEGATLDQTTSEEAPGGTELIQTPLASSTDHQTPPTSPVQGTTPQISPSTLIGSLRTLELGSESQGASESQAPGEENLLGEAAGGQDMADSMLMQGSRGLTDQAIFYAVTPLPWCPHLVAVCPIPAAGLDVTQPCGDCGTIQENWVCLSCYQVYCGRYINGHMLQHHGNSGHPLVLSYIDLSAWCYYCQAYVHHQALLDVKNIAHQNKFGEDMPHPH

[24] = test system: A549; assay: Cell cycle arrest in human A549 cells assessed as accumulation at G2/M phase after 48 hrs by propidium iodide staining-based flow cytometry; type: functional

Histone deacetylase 2, sequence (Q92769 whole entry): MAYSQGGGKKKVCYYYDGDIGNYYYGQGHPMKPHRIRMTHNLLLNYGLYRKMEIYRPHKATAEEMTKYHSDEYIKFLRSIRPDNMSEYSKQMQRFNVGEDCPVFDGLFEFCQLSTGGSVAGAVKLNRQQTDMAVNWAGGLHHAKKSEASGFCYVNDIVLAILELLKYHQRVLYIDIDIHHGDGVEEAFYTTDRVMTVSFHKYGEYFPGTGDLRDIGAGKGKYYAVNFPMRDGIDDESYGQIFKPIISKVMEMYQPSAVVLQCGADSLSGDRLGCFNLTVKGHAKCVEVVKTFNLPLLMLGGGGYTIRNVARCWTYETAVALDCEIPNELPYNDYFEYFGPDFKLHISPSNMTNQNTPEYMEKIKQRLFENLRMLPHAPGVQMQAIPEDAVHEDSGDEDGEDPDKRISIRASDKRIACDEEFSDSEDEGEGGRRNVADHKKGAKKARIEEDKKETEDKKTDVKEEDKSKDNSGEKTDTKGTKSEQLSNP
Histone deacetylase 1, sequence (Q13547 whole entry): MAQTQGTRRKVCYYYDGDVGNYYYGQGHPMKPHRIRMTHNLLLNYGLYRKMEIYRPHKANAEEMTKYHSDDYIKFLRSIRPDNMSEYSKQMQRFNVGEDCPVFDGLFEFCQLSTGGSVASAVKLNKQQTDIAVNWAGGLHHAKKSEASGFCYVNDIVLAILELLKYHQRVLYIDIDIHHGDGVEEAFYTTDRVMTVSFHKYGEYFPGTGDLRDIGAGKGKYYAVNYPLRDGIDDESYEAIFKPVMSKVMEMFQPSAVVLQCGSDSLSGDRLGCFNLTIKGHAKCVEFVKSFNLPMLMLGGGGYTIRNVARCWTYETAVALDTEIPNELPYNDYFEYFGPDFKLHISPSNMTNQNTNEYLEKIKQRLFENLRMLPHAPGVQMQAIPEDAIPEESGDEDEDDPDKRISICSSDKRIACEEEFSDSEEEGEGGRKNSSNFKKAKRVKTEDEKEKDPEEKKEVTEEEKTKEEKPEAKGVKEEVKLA

Row | IC50 [1] | IC50 [2] | IC50 [3] | IC50 [4] | Structure (SMILES) | further results
1 | 8.93 µM | 7.77 µM |  |  | C/C(=N\O)c1ccc(OCc2ccc(C(=O)NO)cc2)cc1 | 
2 | 13.4 µM | > 32 µM | > 32 µM |  | Nc1ccccc1NC(=O)/C=C/c1ccc(CN2CCc3ccccc32)cc1 | 
3 | 8.34 µM | 7.02 µM | 6.02 µM |  | Nc1cc(F)ccc1NC(=O)c1ccc(COc2ccccc2)cc1 | 
4 |  | 13.5 µM | 14.2 µM |  | Nc1ccccc1NC(=O)/C=C/c1ccc(CN2CCc3ccccc3C2)cc1 | 
5 | 24.4 µM | > 32 µM | > 32 µM | > 32 µM | Nc1ccccc1NC(=O)c1ccc(COc2ccc(Br)cc2)cc1 | 
6 | 5.53 µM | 4.2 µM | 3.48 µM | 2.02 µM | COc1ccc(OCc2ccc(C(=O)Nc3ccccc3N)cc2)cc1 | inhibition [5]: Dose-dependent effect
7 | 5.77 µM | 8.4 µM |  |  | O=C(/C=C/c1ccc(COc2ccccc2)cc1)NO | 
8 | 5.48 µM | 14.9 µM |  |  | O=C(/C=C/c1ccc(CN2CCc3ccccc32)cc1)NO | 
9 | 6.42 µM | 6.96 µM | 5.88 µM | 4.83 µM | CCc1ccc(OCc2ccc(C(=O)Nc3ccccc3N)cc2)cc1 | 
10 | > 32 µM | > 32 µM | > 32 µM | > 32 µM | Nc1ccccc1NC(=O)c1ccc(COc2ccc([N+](=O)[O-])cc2)cc1 | 
11 | 7.46 µM | > 32 µM | > 32 µM | 4.57 µM | CC(C)c1ccc(OCc2ccc(C(=O)Nc3ccccc3N)cc2)cc1 | 
12 | 28 µM | 29.6 µM |  |  | O=C(NO)c1ccc(COc2ccccc2)cc1 | 
13 | 6.76 µM | 6.7 µM | 5.67 µM | 4.89 µM | Nc1ccccc1NC(=O)c1ccc(COc2ccccc2)cc1 | 
14 | 20.1 µM | 18.5 µM | 11.6 µM | 7.71 µM | CC(=O)Nc1ccc(C(=O)Nc2ccccc2N)cc1 [TACEDINALINE] | Activity [6]: 1.8%; viability at 8 µM [7]: 85.6%; Activity [8]: 9.31%; Activity [9]: 2.91%; Activity [10]: 4.76%; Activity [11]: 9.1%; Activity [12]: 6.96%; Activity [13]: 81.59%; Activity [14]: 89.32%; Activity [15]: 7.82%; Activity [16]: 6.02%; Activity [17]: 4.39%; viability at 4 µM [18]: 85.7%; Activity [19]: 4.66%
15 | 5.21 µM | 4.75 µM | 4.42 µM | 3.23 µM | CCCc1ccc(OCc2ccc(C(=O)Nc3ccccc3N)cc2)cc1 | 
16 | > 32 µM | > 32 µM | > 32 µM | 17.3 µM | Nc1ccccc1NC(=O)c1ccc(COc2ccc(Cl)cc2)cc1 | 
17 | > 32 µM | > 32 µM | > 32 µM |  | Nc1ccccc1NC(=O)/C=C/c1ccc(COc2ccccc2)cc1 | 
18 | > 32 µM | > 32 µM | > 32 µM |  | Nc1cnccc1NC(=O)/C=C/c1ccc(COc2ccccc2)cc1 | 
19 | 5.37 µM | 3.84 µM | 4.97 µM | 3.86 µM | Nc1ccccc1NC(=O)c1ccc(COc2ccc(F)cc2)cc1 | Activity [20]: Dose-dependent effect; Activity [6]: 6.34%; viability at 8 µM [7]: 29.7%; inhibition [5]: Dose-dependent effect; Activity [8]: 6.1%; Activity [9]: 3.74%; Activity [10]: 28.88%; Activity [11]: 8.97%; Activity [12]: 14.37%; Activity [13]: 84.93%; IC50 [21]: 1.27 µM; IC50 [22]: 0.57 µM; Activity [14]: 54.03%; Activity [15]: 35.52%; Activity [16]: 37.74%; Activity [17]: 10.93%; viability at 4 µM [18]: 70.9%; IC50 [23]: > 40 µM; Activity [24]: Dose-dependent effect; Activity [19]: 8.23%
20 | 5.43 µM | 6.59 µM | 6.53 µM | 4.86 µM | Cc1ccc(OCc2ccc(C(=O)Nc3ccccc3N)cc2)cc1 | 
21 | 11 µM | 22.7 µM | 6.44 µM | 2.28 µM | Nc1ccc(F)cc1NC(=O)c1ccc(CNC(=O)/C=C/c2cccnc2)cc1 | Activity [6]: 2.1%; viability at 8 µM [7]: 75.5%; Activity [8]: 10.02%; Activity [9]: 1.52%; Activity [10]: 8.94%; Activity [11]: 9.84%; Activity [12]: 10.55%; Activity [13]: 80.14%; Activity [14]: 85.67%; Activity [15]: 13.48%; Activity [16]: 6.46%; Activity [17]: 6.27%; viability at 4 µM [18]: 81.6%; Activity [19]: 7.87%
22 |  | 10.7 µM | 7.39 µM |  | Nc1ccccc1NC(=O)c1ccc(CN2CCc3cc(Br)ccc32)cc1 | 
